In patent US20140057915A1, “KINASE INHIBITORS” (TOPIVERT PHARMA LIMITED, priority 2012, published 2014):
pEC50, pIC50: −log10 of the molar value.

Key:
[1] = system: ICAM-1 expression, BEAS2B cells; assay: Poly I:C-induced ICAM-1 expression in BEAS2B cells; type: cell-based; settings: Homo sapiens, BEAS-2B; read-out: Poly IC induced ICAM1 in BEAS2B, IC50
Method in brief: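 BEAS2B human bronchial epithelial cells pre-incubated 2 h with compound, then transfected with poly I:C (1 μg/mL) plus Oligofectamine. After 18 h, cell-surface ICAM-1 read by cell-based ELISA (A450–655), normalised to Crystal Violet cell number (A595); inhibition calculated against vehicle control at each concentration.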

d-U937 cells = assay: Cell viability: MTT assay; type: cell-based, human; settings: 1 μg/mL
Method in brief: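 Differentiated U937 cells exposed to compound at 1 or 10 μg/mL, either 4 h in 5% FCS or 24 h in 10% FCS RPMI1640. MTT then added for 1 h, formazan dissolved in DMSO and read at 550 nm. Viability loss given as % versus 0.5% DMSO vehicle; apparent gains appear negative.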

[2] = target: p38 MAPKα isoform (MAPK14) (Homo sapiens, UniProt Q16539); assay: p38 MAPKα enzyme inhibition (FRET, Z-LYTE), Method 1; type: biochemical; settings: Table 4a1
Procedure: The enzyme inhibitory activities of compounds disclosed herein are determined by FRET using synthetic peptides labelled with both donor and acceptor fluorophores (Z-LYTE, Invitrogen Ltd., Paisley, UK).
The following two assay variants are used for determination of p38 MAPKα inhibition.
The inhibitory activities of test compounds against the p38 MAPKα isoform (MAPK14: Invitrogen), are evaluated indirectly by determining the level of activation/phosphorylation of the down-stream molecule, MAPKAP-K2. The p38 MAPKα protein (80 ng/mL, 2.5 μL) is mixed with the test compound (2.5 μL of either 4 μg/mL, 0.4 μg/mL, 0.04 μg/mL or 0.004 μg/mL) for 2 hr at RT. […] The mixture is incubated for 1 hr at RT. Development reagent (protease, 5 μL) is added for 1 hr prior to detection in a fluorescence microplate reader (Varioskan® Flash, ThermoFisher Scientific).
In all cases, the site-specific protease cleaves non-phosphorylated peptide only and eliminates the FRET signal. Phosphorylation levels of each reaction are calculated using the ratio of coumarin emission (donor) over fluorescein emission (acceptor), for which high ratios indicate high phosphorylation and low ratios indicate low phosphorylation levels.

cSrc = cSrc (Homo sapiens, UniProt P12931); assay: c-Src enzyme inhibition (FRET); type: biochemical; settings: Table 4a1
Method in brief: (§1)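 2 hr RT enzyme + cpd (added solns 4/0.4/0.04/0.004 μg/mL); + FRET peptide (8 μM soln) + ATP soln (c-Src 800 μM, Syk 60 μM), 1 hr; protease development 1 hr; read donor/acceptor emission ratio.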

GSK3α [3] = target: T1, GSK3α (Homo sapiens, UniProt P49840); assay: GSK 3α enzyme inhibition (FRET), Method 1; type: biochemical; settings: Table 4a1
Method in brief: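 Inhibition is scored from phosphorylation of a dual-labelled synthetic peptide, measured by FRET after protease cleavage of unphosphorylated substrate. Incubations are 2 hr compound with enzyme, then 1 hr kinase reaction.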

[4] = system: TNFα release, d-U937 cells; assay: LPS-induced TNFα release in d-U937 cells; type: cell-based; settings: Homo sapiens, dU937; relative to 10 μg/mL BIRB796; Table 4c1; read-out: LPS Induced Release of Cytokine in d-U937 Cells, TNFα REC50
Method in brief: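 U937 cells differentiated with PMA (100 ng/mL, 48–72 hr), pre-treated with compound for 2 hr, then stimulated with E. coli LPS (0.1 μg/mL) for 4 hr. Supernatant cytokine measured by sandwich ELISA; inhibition versus vehicle control, REC50 from concentration-response curve.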

[5] = system: IL-8 release, d-U937 cells; assay: LPS-induced IL-8 release in d-U937 cells; type: cell-based; settings: Homo sapiens, dU937; Table 4c1; read-out: LPS Induced Release of Cytokine in d-U937 Cells, IL-8 IC50
Method in brief: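 IL-8 release after a 4 hr challenge with LPS (0.1 μg/mL, E. coli 0111:B4) following a 2 hr compound pretreatment. Cells were human U937 monocytes differentiated to macrophage-type with PMA 100 ng/mL for 48–72 hr. Relative 50% effective concentration derived from concentration–response data.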

Syk [6] = target: T2, Syk (Homo sapiens, UniProt P43405); assay: Syk enzyme inhibition (FRET); type: biochemical; settings: Table 4a1
Method in brief: as §1

mice = assay: Mouse cigarette (tobacco) smoke model; type: in vivo; settings: 1.75 μg/mouse (35 μL, bid, i.n.)
Source text: The result of treatment with compound Example (8) on macrophage and neutrophil accumulation in BALF in the mouse cigarette smoke model was investigated (Table 5).

Syk [7] = target: T2, Syk; assay: Enzyme binding assay (Kinomescan); settings: read-out: % Inhibition of kinase binding at 500 nM, Syk
Procedure: (§2) Enzyme Binding Assays (Kinomescan)
(§3) These assays were conducted by DiscoverX (formerly Ambit; San Diego, Calif.). The percentage inhibition produced by incubation with a test compound is calculated relative to the non-inhibited control.

GSK3α [8] = target: T1, GSK3α; assay: Enzyme binding assay (Kinomescan); settings: read-out: % Inhibition of kinase binding at 500 nM, GSK3α
Procedure: as §3

p38 MAPKα = p38 MAPKα (Homo sapiens, UniProt Q16539); assay: Enzyme binding assay (Kinomescan); settings: read-out: % Inhibition of kinase binding at 500 nM, p38 MAPKα
Procedure: as §2
(§4) The kinase enzyme binding activities of compounds disclosed herein were determined using a proprietary assay which measures active site-directed competition binding to an immobilized ligand (Fabian, M. A. et al., Nature Biotechnol., 2005, 23:329-336). These assays were conducted by DiscoverX (formerly Ambit; San Diego, Calif.). The percentage inhibition produced by incubation with a test compound is calculated relative to the non-inhibited control.

B-Raf = B-Raf (Homo sapiens, UniProt P15056); assay: Enzyme binding assay (Kinomescan); settings: read-out: % Inhibition of kinase binding at 500 nM, B-Raf
Procedure: as §2, §4

T1 sequence (P49840 whole entry): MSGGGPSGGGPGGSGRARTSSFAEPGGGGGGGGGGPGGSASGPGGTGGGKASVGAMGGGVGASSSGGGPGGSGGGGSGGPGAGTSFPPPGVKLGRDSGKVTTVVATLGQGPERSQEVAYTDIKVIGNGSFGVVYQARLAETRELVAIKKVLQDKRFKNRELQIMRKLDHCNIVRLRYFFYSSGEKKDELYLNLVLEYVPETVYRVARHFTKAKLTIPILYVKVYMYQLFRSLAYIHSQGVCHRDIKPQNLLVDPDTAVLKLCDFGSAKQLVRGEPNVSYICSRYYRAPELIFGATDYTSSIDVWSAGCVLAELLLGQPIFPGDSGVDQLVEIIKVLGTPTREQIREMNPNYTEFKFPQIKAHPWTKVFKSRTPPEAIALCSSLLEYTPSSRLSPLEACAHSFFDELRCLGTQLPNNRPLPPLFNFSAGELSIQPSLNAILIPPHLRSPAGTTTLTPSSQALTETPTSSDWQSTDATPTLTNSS
Sequence of cSrc (P12931 whole entry): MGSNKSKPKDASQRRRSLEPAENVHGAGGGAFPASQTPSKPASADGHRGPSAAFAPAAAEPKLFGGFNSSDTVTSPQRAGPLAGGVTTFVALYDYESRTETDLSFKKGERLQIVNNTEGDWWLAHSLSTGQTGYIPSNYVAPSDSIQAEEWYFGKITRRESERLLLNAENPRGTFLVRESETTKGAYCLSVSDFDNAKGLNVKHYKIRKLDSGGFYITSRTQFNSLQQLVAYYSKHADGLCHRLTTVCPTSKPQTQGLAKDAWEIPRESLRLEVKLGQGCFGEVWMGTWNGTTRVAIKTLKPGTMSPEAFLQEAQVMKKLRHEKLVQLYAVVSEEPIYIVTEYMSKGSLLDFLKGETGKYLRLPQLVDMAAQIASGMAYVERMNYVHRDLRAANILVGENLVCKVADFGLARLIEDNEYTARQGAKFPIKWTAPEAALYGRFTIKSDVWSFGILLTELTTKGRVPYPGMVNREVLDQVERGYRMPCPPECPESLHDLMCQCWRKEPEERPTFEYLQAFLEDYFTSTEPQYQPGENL
Sequence of p38 MAPKα isoform (MAPK14) (Q16539 whole entry, canonical isoform): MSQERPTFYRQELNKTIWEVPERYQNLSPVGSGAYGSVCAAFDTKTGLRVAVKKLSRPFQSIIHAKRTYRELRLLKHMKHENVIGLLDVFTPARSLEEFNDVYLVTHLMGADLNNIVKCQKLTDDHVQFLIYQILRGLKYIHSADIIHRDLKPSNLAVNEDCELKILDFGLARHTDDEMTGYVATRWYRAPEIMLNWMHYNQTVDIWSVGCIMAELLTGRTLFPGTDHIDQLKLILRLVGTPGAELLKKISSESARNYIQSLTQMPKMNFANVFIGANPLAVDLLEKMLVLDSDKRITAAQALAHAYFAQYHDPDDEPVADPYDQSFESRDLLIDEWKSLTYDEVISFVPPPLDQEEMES
Sequence of B-Raf (P15056 whole entry): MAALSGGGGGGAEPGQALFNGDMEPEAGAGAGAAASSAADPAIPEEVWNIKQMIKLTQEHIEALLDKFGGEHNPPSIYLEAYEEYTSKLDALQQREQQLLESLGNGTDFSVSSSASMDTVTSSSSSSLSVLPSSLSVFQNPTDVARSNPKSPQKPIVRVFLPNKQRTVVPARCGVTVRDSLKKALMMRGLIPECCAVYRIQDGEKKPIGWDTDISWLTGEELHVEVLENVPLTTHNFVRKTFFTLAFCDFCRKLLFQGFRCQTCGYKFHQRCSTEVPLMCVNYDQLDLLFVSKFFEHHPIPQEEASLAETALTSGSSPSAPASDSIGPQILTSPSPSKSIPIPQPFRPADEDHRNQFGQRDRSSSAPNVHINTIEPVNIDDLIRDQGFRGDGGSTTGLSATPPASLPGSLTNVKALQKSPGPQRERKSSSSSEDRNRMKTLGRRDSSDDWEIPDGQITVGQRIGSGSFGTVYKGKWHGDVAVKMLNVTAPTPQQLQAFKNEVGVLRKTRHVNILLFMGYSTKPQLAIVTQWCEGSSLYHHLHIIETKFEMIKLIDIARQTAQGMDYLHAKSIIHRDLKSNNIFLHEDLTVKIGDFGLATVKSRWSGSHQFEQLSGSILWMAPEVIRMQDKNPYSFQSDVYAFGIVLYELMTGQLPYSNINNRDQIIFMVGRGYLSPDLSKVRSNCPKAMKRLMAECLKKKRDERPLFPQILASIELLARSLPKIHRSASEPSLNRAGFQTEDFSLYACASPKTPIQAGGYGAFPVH
Sequence of p38 MAPKα (Q16539 whole entry): as the sequence (Q16539 whole entry, canonical isoform) above

Structure (SMILES)	pIC50 [1]	Cell viability at time point in d-U937 cells, 4 h (d-U937 cells)	Cell viability at time point in d-U937 cells, 24 h (d-U937 cells)	pIC50 [2]	pIC50 (cSrc)	pIC50 (GSK3α [3])	pEC50 [4]	pIC50 [5]	pIC50 (Syk [6])	neutrophil or macrophage accumulation into airways (mice)	inhibition at 0.5 µM (Syk [7]) [%]	inhibition at 0.5 µM (GSK3α [8]) [%]	inhibition at 0.5 µM (p38 MAPKα) [%]	inhibition at 0.5 µM (B-Raf) [%]
COc1ccc(Nc2nccc(Oc3ccc(NC(=O)Nc4cc(C(C)(C)C)nn4-c4ccc(C)cc4)c4ccccc34)n2)cc1C(=O)NCCN1CCOCC1 [Example 13, 5-((4-((4-(3-(3-(tert-Butyl)-1-(p-tolyl)-1H-pyrazol-5-yl)ureido)naphthalen-1-yl)oxy)pyrimidin-2-yl)amino)-2-methoxy-N-(2-morpholinoethyl)benzamide]	8.77	−ve (−ve and +ve indicate that the value is below and above respectively, the no significant effect threshold, defined as 30% inhibition at 1 μg/mL at the time point indicated)	−ve (−ve and +ve indicate that the value is below and above respectively, the no significant effect threshold, defined as 30% inhibition at 1 μg/mL at the time point indicated)	7.62	8.70	6.17	9.40	9.52	7.80					
COc1ccc(C(=O)NCCN(C)C)cc1Nc1nccc(Oc2ccc(NC(=O)Nc3cc(C(C)(C)C)nn3-c3ccc(C)cc3)c3ccccc23)n1 [Example 29, 3-((4-((4-(3-(3-(tert-butyl)-1-(p-tolyl)-1H-pyrazol-5-yl)ureido)naphthalen-1-yl)oxy)pyrimidin-2-yl)amino)-N-(2-(dimethylamino)ethyl)-4-methoxybenzamide]	7.82	−ve (−ve and +ve indicate that the value is below and above respectively, the no significant effect threshold, defined as 30% inhibition at 1 μg/mL at the time point indicated)	−ve (−ve and +ve indicate that the value is below and above respectively, the no significant effect threshold, defined as 30% inhibition at 1 μg/mL at the time point indicated)	> 9.00	> 9.00	5.49	8.42	7.86	6.83					
CCC(=O)O[C@]1(C(=O)SCF)[C@H](C)C[C@H]2[C@@H]3C[C@H](F)C4=CC(=O)C=C[C@]4(C)[C@@]3(F)[C@@H](O)C[C@@]21C [fluticasone propionate]										did not inhibit				
COCC(=O)Nc1cc(Oc2ccc(NC(=O)Nc3cc(C(C)(C)C)nn3-c3ccc(C)cc3)c3ccccc23)ccn1 [Reference Compound, N-(4-(4-(3-(3-tert-butyl-1-p-tolyl-1H-pyrazol-5-yl)ureido)naphthalen-1-yloxy)pyridin-2-yl)-2-methoxyacetamide, reference compound]	8.68	−ve (−ve and +ve indicate that the value is below and above respectively, the no significant effect threshold, defined as 30% inhibition at 1 μg/mL at the time point indicated)	+ve (−ve and +ve indicate that the value is below and above respectively, the no significant effect threshold, defined as 30% inhibition at 1 μg/mL at the time point indicated)				9.89				95	84	100	70
